ChEMBL document CHEMBL1201862, “PubChem BioAssay data set” (2004)
Active and inactive are the calls of the source.

Columns and labels:
[1] = target: T1, Alkaline phosphatase, tissue-nonspecific isozyme (Homo sapiens, UniProt P05186)
T1 sequence (P05186 whole entry): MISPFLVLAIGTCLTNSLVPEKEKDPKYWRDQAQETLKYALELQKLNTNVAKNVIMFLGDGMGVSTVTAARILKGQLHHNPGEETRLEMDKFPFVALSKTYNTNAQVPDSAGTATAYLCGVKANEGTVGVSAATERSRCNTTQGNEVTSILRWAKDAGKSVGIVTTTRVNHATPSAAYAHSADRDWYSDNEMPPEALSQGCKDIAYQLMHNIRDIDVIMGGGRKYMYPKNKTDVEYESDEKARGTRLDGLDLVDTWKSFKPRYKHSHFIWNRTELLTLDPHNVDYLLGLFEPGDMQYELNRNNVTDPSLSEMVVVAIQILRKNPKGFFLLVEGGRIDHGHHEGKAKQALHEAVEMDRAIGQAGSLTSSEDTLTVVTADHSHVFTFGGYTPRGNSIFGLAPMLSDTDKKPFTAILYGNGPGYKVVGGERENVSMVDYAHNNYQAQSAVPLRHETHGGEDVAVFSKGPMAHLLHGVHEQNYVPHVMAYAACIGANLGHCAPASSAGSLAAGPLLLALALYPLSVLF

[2] = viability loss in THP-1 monocytes – THP-1 cells, cytotoxicity control for Vif-APOBEC3G degradation inhibitor project, dose response (AID 1117359); type: functional; conditions: THP-1
[3] = target: T2, Carboxy-terminal domain RNA polymerase II polypeptide A small phosphatase 1 (Homo sapiens, UniProt Q9GZU7); experiment: CTDSP1 inhibitors, concentration-response, biochemical, absorbance readout, ultra-high-throughput screen actives (AID 540297); type: functional
T2 sequence (Q9GZU7 whole entry): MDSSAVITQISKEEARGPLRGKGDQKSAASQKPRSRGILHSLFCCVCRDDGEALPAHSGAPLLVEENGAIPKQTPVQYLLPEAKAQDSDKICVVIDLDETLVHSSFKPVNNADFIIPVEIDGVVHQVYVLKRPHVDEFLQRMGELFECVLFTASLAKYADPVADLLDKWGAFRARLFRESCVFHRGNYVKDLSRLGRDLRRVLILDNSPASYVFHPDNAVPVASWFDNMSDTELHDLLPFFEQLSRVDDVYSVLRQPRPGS

[4] = target: Eukaryotic translation initiation factor 4E (Mus musculus, UniProt P63073); experiment: blockers of eIF4G binding by eIF4E – biochemical, TR-FRET, dose response (AID 855); type: functional;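 also: potency for disrupting eIF4E binding to eIF4GI seen as loss of FRET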
[5] = target: DNA dC->dU-editing enzyme APOBEC-3G (Homo sapiens, UniProt Q9HC16); experiment: Dose Response confirmation of small molecule APOBEC3G DNA Deaminase Inhibitors via a fluorescence-based single-stranded DNA deaminase assay. [Related pubchem assays (depositor defined):AID493012, AID493028]; type: functional
[6] = Luminescence-based cell-based high throughput dose response assay to identify activators of the DAF-12 from the parasite S. stercoralis (ssDAF-12).; type: functional
Beta-galactosidase = Beta-galactosidase (Escherichia coli, UniProt Q8VNN2); experiment: detection-enzyme interference by beta-gal modulators – biochemical, E. coli enzyme, set 3, artefact control for CCR6 antagonist project, dose response (AID 504712); type: functional
[7] = target: T3, Oxysterols receptor LXR-beta (Homo sapiens, UniProt P55055); experiment: LXR agonists, Gal4 luciferase reporter, dose response, counter-screen for ssDAF-12 agonist project, cell-based, luminescence, HEK293, S. stercoralis campaign (AID 720737); type: functional; conditions: read-out: IC50 (the source's name)
T3 sequence (P55055 whole entry): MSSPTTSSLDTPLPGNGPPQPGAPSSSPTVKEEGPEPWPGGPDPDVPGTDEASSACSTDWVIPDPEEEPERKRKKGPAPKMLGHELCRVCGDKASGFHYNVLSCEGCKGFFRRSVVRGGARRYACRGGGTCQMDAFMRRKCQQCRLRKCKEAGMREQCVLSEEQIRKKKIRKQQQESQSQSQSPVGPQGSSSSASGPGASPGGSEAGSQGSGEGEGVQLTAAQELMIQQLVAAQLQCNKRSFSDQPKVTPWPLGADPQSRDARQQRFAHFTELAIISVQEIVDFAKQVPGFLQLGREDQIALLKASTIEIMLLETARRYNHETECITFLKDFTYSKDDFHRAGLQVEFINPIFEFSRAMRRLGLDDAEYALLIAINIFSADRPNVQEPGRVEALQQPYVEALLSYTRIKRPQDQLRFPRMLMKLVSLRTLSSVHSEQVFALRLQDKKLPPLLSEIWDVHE

[8] = target: C-C chemokine receptor type 6 (Homo sapiens, UniProt P51684); experiment: antagonism of CCR6 beta-arrestin recruitment – cell-based, luminescent beta-arrestin readout, dose response (AID 504728); type: functional
X-box-binding protein 1 = X-box-binding protein 1 (Homo sapiens, UniProt P17861); type: functional, Cricetulus griseus;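 also: confirmatory dose-response counter-screen serving a CHOP assay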
[9] = A Cell Based Secondary Assay To Explore Cytotoxicity of Compounds that Sensitize Mycobacterium Tuberculosis to Beta-Lactam Antibiotics.; type: functional
Estrogen receptor = Estrogen receptor (Homo sapiens, UniProt P03372); experiment: ERα coactivator recruitment enhancers – biochemical, TR-FRET, ERα LBD, dose response (AID 737)
Caspase-3 = target: T4, Caspase-3 (Homo sapiens, UniProt P42574); experiment: activation of caspase-3 zymogen – biochemical, absorbance, dose response (AID 489014)
T4 sequence (P42574 whole entry): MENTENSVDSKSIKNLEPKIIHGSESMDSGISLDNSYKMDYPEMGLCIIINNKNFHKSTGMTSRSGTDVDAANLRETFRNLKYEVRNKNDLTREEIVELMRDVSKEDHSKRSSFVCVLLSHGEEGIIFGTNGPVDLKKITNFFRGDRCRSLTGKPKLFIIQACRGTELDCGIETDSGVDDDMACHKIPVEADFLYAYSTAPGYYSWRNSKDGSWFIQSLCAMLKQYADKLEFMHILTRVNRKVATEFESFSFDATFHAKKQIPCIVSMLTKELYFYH

Caspase-7 = Caspase-7 (Homo sapiens, UniProt P55210); experiment: activation of caspase-7 zymogen – biochemical, absorbance, counter-screen for procaspase-3 activator project, dose response (AID 489013)
[10] = target: T1, Alkaline phosphatase, tissue-nonspecific isozyme; experiment: potency against alkaline phosphatase TNAP – biochemical, luminescent, dose response, SAR follow-up (AID 1056)
[11] = target: Alkaline phosphatase, placental type (Homo sapiens, UniProt P05187); experiment: human placental alkaline phosphatase inhibition – biochemical, luminescence, confirmation (AID 1512); type: functional
[12] = target: Mannose-6-phosphate isomerase (Homo sapiens, UniProt P34949); experiment: MPI inhibition at elevated mannose 6-phosphate – biochemical, fluorescence intensity, high mannose 6-phosphate, primary screen (AID 1220)
[13] = viability of HCT116 lacking mutant beta-catenin – cell-based, human colon tumor, dose response (AID 1045); type: functional;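 also: HCT116 colon tumor cells with beta catenin knocked out; cells exposed to compound for 60 hours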
[14] = viability of PTEN-deleted HCT116 cells – cell-based, HCT116 PTEN knockout, dose response (AID 1047); type: functional;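 also: HCT116 colon tumor cells with PTEN knocked out; cells exposed to compound for 60 hours before readout; potency for loss of cell viability measured by luminescence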
[15] = viability of uninfected HEp-2 cells – cell-based, HTS, cytotoxicity control for RSV inhibitor project, dose response (AID 2410); type: functional; conditions: human respiratory syncytial virus
Cytochrome P450 2D6 = Cytochrome P450 2D6 (Homo sapiens, UniProt P10635); experiment: qHTS Assay for Inhibitors and Substrates of Cytochrome P450 2D6. [Related pubchem assays: 410 ]; type: ADME; conditions: read-out: Potency
Streptokinase A = target: T5, Streptokinase A (Streptococcus pyogenes serotype M1, UniProt P10520); experiment: viability-normalized secreted streptokinase activity reduction – plasminogen activation absorbance, OD405, dose response (AID 1914); type: functional, Streptococcus pyogenes M1 GAS;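 also: secreted streptokinase activity via plasminogen activation per viability signal from cell pellet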
T5 sequence (P10520 whole entry): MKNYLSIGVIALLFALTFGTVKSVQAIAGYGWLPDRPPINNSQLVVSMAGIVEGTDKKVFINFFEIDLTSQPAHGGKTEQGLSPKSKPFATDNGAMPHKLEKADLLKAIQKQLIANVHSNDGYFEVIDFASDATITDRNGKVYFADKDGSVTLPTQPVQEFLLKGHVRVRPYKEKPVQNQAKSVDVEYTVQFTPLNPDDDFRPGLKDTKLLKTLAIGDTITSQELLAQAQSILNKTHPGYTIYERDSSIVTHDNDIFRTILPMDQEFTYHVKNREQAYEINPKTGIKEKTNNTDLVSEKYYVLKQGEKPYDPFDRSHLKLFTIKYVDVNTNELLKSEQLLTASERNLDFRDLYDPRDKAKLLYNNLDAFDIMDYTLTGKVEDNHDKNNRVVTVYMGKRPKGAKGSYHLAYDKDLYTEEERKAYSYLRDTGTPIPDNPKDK

Streptococcus = experiment: GAS UMAA2166 growth inhibition – luminescence, BacTiterGlo, counter-screen for streptokinase expression inhibitor project, dose response (AID 1915); type: functional, organism-based;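 also: potency for reduction of bacterial viability or growth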
[16] = test system: Streptococcus sp. 'group A'; experiment: Streptococcus pyogenes SK(-)GAS viability under kanamycin – luminescence, BacTiterGlo, confirmation, counter-screen for streptokinase expression inhibitor project, dose response (AID 1900); type: functional, organism-based
Cytochrome P450 3A4 = Cytochrome P450 3A4 (Homo sapiens, UniProt P08684); conditions: Potency;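 also: confirmatory qHTS run detecting inhibitors and substrates of CYP3A4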
[17] = target: Melanin-concentrating hormone receptor 1 (Homo sapiens, UniProt Q99705); experiment: Fluorescence-based counterscreen for antagonists of the G-protein coupled receptor 7 (GPR7): cell-based high throughput dose response assay to identify antagonists of the melanin-concentrating hormone receptor 1 (MCHR1).; type: functional
[18] = target: Serine/threonine-protein phosphatase PP1-alpha catalytic subunit (Homo sapiens, UniProt P62136); experiment: inhibition of protein phosphatase 1 activity – biochemical, fluorescence, dose response (AID 2403);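 also: phosphatase turnover of OMFP into fluorescent 3-O-methylfluorescein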
[19] = target: Serine/threonine-protein phosphatase (Homo sapiens, UniProt Q9BPW0); experiment: Counterscreen for inhibitors of PP1: fluorescence-based biochemical high throughput dose response assay to identify inhibitors of Protein Phosphatase 5 (PP5). [Related pubchem assays: 2034 (Summary (PP5 inhibitors)), 1987 (PP5 inhibitors in singlate), 2235 (PP1 inhibitors in singlate)]
[20] = target: G-protein coupled receptor 55 (Homo sapiens, UniProt Q9Y2T6); experiment: inhibition of LPI-stimulated GPR55 beta-arrestin translocation – imaging, U2OS, beta-arrestin-GFP, LPI agonist, primary screen (AID 2013); type: functional;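 also: antagonist potency measured as reduced agonist-driven arrestin aggregation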

C-C chemokine receptor type 6, sequence (P51684 whole entry): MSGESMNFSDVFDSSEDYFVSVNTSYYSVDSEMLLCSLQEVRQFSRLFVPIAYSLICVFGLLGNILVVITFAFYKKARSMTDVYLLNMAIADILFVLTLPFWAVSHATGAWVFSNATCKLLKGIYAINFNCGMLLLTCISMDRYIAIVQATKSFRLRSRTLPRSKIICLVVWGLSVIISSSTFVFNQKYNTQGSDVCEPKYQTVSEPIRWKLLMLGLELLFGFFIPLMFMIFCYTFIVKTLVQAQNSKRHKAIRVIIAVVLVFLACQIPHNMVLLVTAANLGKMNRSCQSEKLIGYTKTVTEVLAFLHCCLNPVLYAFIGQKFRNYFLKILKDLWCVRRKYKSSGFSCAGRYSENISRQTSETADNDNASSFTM
X-box-binding protein 1, sequence (P17861 whole entry): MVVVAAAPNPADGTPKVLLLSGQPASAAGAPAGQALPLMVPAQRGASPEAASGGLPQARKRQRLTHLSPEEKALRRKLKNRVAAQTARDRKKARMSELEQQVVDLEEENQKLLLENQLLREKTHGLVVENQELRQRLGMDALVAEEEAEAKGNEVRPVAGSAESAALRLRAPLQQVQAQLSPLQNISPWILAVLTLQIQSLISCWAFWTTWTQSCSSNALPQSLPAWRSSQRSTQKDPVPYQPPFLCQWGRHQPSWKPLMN
Alkaline phosphatase, placental type, sequence (P05187 whole entry): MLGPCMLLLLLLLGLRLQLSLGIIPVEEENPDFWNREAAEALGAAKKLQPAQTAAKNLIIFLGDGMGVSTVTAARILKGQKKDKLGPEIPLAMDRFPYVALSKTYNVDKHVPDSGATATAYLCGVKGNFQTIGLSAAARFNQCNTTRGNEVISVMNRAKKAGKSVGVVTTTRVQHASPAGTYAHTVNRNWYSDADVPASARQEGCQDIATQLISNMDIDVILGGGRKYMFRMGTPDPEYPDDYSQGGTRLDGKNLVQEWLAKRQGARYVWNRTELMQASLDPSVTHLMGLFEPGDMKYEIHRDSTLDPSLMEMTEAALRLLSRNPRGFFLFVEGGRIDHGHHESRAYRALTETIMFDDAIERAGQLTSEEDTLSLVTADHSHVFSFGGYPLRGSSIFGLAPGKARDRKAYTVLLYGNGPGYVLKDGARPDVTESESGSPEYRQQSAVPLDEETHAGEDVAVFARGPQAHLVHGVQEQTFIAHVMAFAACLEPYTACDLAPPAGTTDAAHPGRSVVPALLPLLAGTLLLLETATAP
Caspase-7, sequence (P55210 24-198 limits assumed): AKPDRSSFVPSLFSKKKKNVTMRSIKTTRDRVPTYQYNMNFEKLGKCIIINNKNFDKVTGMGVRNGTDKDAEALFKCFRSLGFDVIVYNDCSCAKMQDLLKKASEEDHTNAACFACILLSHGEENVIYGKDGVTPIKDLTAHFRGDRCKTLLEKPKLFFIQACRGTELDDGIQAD
Caspase-7, sequence (P55210 207-303 limits assumed): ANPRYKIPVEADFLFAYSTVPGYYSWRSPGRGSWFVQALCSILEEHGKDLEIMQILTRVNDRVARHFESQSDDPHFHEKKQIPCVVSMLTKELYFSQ
Beta-galactosidase, sequence (Q8VNN2 whole entry, the tested form may be a part): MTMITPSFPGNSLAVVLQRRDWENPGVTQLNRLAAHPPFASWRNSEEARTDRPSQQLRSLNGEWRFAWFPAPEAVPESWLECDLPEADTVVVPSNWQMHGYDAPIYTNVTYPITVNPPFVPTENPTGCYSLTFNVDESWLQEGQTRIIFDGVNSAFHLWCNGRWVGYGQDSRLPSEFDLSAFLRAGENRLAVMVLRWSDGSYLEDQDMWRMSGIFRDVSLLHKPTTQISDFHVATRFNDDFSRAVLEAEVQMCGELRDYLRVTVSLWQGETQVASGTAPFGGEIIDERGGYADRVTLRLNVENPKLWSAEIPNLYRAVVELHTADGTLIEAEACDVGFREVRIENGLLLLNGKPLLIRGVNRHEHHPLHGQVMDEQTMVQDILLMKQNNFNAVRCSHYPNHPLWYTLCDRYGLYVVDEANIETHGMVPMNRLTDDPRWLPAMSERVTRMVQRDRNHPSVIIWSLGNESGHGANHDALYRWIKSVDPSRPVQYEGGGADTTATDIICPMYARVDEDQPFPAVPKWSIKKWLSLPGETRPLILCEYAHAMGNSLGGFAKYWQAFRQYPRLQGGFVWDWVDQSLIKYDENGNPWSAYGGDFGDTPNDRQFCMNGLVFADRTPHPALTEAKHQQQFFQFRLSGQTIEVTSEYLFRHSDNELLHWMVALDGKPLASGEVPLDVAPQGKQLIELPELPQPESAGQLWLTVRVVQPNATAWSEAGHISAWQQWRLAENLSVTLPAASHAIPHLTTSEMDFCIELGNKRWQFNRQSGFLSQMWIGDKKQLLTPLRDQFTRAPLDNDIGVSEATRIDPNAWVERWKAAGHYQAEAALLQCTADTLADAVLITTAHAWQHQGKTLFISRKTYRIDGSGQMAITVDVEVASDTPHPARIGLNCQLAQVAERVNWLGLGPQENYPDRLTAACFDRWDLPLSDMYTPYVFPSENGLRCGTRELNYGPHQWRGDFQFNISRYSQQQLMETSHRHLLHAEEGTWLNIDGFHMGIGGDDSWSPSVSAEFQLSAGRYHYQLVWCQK
Eukaryotic translation initiation factor 4E, sequence (P63073 whole entry): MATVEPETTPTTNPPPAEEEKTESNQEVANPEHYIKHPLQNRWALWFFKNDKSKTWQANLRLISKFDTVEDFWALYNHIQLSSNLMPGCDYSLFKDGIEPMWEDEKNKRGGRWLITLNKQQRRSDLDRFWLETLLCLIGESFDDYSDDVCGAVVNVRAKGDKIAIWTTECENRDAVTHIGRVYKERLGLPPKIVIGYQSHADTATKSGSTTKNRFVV
Cytochrome P450 2D6, sequence (P10635 whole entry): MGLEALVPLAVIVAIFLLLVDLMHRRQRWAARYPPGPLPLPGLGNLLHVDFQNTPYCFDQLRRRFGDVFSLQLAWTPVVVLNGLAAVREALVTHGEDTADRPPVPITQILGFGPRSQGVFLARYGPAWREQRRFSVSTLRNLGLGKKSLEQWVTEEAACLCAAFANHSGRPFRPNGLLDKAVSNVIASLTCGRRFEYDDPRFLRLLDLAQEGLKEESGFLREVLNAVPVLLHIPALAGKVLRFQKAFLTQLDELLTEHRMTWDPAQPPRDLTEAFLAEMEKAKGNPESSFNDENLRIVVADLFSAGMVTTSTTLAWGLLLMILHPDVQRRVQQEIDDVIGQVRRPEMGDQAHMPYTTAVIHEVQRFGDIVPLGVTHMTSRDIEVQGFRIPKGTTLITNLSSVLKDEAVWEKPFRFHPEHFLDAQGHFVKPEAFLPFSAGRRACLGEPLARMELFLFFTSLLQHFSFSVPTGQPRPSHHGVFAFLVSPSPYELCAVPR
Cytochrome P450 3A4, sequence (P08684 whole entry): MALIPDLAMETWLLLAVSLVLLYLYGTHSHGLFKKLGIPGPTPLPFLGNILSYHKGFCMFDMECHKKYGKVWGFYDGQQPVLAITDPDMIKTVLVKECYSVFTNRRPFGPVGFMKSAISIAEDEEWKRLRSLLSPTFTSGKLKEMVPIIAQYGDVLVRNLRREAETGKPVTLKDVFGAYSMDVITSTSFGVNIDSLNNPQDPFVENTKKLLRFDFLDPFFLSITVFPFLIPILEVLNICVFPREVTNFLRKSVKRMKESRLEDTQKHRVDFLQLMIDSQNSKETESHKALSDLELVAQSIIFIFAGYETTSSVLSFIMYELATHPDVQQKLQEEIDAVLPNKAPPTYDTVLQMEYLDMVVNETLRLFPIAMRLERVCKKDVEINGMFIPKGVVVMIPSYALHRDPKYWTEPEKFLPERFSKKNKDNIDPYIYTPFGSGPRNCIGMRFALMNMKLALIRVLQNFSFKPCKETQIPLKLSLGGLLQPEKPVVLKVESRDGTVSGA
Serine/threonine-protein phosphatase, sequence (Q9BPW0 whole entry): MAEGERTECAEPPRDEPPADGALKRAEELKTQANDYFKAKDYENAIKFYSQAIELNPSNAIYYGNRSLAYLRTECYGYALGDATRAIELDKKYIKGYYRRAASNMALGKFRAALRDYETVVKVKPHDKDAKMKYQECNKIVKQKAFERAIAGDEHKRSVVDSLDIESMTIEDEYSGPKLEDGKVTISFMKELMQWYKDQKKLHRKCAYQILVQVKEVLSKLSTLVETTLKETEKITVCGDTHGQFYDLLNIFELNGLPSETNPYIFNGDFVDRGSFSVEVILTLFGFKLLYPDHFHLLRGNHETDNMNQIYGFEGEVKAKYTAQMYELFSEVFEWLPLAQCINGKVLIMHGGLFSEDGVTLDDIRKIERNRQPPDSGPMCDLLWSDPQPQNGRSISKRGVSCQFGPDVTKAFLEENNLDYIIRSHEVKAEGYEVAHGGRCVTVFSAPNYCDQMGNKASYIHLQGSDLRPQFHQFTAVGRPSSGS
Estrogen receptor, sequence (P03372 whole entry, the tested form may be a part): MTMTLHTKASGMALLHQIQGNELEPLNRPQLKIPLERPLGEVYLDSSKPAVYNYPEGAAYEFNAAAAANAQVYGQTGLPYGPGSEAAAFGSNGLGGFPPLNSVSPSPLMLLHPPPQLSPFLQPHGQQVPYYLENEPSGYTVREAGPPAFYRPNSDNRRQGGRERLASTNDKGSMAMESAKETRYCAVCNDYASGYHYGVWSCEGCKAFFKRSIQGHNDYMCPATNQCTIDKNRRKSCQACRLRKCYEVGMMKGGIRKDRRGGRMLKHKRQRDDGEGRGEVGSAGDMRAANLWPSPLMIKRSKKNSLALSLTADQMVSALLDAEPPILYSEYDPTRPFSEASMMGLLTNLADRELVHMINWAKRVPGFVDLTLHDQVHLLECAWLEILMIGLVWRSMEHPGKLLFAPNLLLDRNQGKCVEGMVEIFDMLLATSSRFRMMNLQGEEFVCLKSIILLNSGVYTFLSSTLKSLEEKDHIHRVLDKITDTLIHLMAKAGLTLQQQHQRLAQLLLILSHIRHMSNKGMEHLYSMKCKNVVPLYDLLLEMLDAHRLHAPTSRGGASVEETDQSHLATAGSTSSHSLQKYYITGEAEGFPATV

SMILES: CCC(C)N=C(S)NNC(=O)c1ccc(C(C)(C)C)cc1 (stereo not drawn)
- EC50 [1]: 79.2 µM (not active)
- CC50 [2]: > 40 µM (active)

SMILES: c1ccc2[nH]c(-c3ccnc4ccccc34)nc2c1
- IC50 [3]: 3.66 µM (active)
- IC50 [4]: > 64 µM (inactive)

SMILES: CCN(CC)c1ccc(NC(=O)c2ccccc2)cc1S(=O)(=O)Nc1ccccc1OC
- IC50 [5]: 30 µM (active)

SMILES: Cc1c(C(=O)Nc2nc3ccccc3[nH]2)oc2ccccc12
- IC50 [6]: > 67.5 µM (inactive)
- IC50 (Beta-galactosidase): > 66.6 µM (inactive)
- EC50 [7]: > 67.5 µM (inactive)
- IC50 [8]: 0.552 µM (active)

SMILES: CCCOc1ccc(N2C(=O)CC(SC(=NCC)Nc3cccc(F)c3)C2=O)cc1 (stereo not drawn)
- Absolute IC50 (XBP1) (X-box-binding protein 1): 10 µM

SMILES: O=C1N=C(N/N=C/c2ccc3ncccc3c2)SC1Cc1ccc(SC(F)F)cc1 (stereo not drawn)
- CC50 [9]: > 40 µM (active)

SMILES: CCSc1nc2c(cnn2-c2ccc(C)cc2)c(=O)[nH]1
- EC50 (Estrogen receptor): 14.4 µM (active)

SMILES: CCN(CC)c1ccc(/C=N/NC(=S)NCc2ccco2)cc1
- EC50 (Caspase-3): > 85.3 µM (inactive)
- EC50 (Caspase-7): > 85.3 µM (inactive)

SMILES: Cc1ccc(C)c2sc(NC(=O)c3nc4ccccc4s3)nc12
- IC50 (Beta-galactosidase): > 66.6 µM (inactive)
- IC50 [8]: 0.869 µM (active)

SMILES: COc1ccc(CCNC(=O)CCNC(=O)c2ccc(Br)cc2)cc1OC
- IC50 [4]: > 64 µM (inactive)

SMILES: COC(=O)C(N)Cc1ccc(O)c(O)c1 (stereo not drawn)
- IC50 [10]: > 100 µM (inactive)
- IC50 [11]: 8.43 µM (active)
- IC50 [12]: > 50 µM (not active)

SMILES: Cn1c(=O)c2c(nc(N/N=C/c3cccs3)n2Cc2ccccc2)n(C)c1=O
- EC50 [13]: 84.2 µM (active)
- EC50 [1]: > 100 µM (not active)
- EC50 [14]: 56.2 µM (active)

SMILES: Cc1cc(NC(=O)CSc2nc(C(C)C)nc3sc4c(c23)CCCC4)no1
- CC50 [9]: 38 µM (active)

SMILES: CCCCOn1c(C)c(C(=O)OCC)c2c3nonc3ccc21
- EC50 (Caspase-3): > 85.3 µM (inactive)
- EC50 (Caspase-7): > 85.3 µM (inactive)

SMILES: Cc1nc2ccccc2nc(C)c1=NOCc1cccc(F)c1
- IC50 (cells): 35.9 µM (active)
- CC50 [15]: 41.4 µM (active)

SMILES: COc1ccc(NC(=O)/C=C\c2ccc(Cl)cc2)cc1
- AC50 (Cytochrome P450 2D6): 25.1 µM (inconclusive)

SMILES: Cc1nc2ccccc2nc1Nc1cccc(Cl)c1
- IC50 (cells): 11.7 µM (active)
- CC50 [15]: 24.1 µM (active)

SMILES: Cc1ccc(NC(=O)c2ccc(C#CC3(O)CCCCC3)cc2)cc1C
- EC50 (Streptokinase A): 7.36 µM (inconclusive)
- EC50 (Streptococcus): > 150 µM (not active)
- EC50 [16]: > 150 µM (not active)
- Absolute IC50 (XBP1) (X-box-binding protein 1): 10 µM

SMILES: O=c1cc(-c2cccc(O)c2O)oc2ccccc12
- AC50 (Cytochrome P450 2D6): 31.6 µM (inconclusive)
- AC50 (Cytochrome P450 3A4): 20 µM (inconclusive)

SMILES: C#CC(CO)N(CCN(Cc1ccccc1)C(C#C)CO)Cc1ccccc1 (stereo not drawn)
- IC50 [17]: 15 µM (not active)

SMILES: COc1ccc(CN2C(=O)Cc3c2nc(N)c2c(N)nc(N4CCCCC4)c(C#N)c32)cc1
- IC50 [18]: 11.1 µM (not active)
- IC50 [19]: > 67 µM (not active)

SMILES: COc1cc(OC)c(-n2c(C)cc(C=O)c2C)cc1Cl
- IC50 [20]: 4.72 µM (active)

SMILES: Cc1ccc(-c2nnc(SCC(=O)c3ccc(O)c(O)c3)n2-c2ccc(C)cc2)cc1
- IC50 [10]: > 100 µM (inactive)
- IC50 [11]: 9.54 µM (active)
